The record followed here is ChEMBL document CHEMBL2069188, “Structural requirements for the antitubercular quaternized triflupromazine pharmacophore” (Bioorg Med Chem Lett, 2012).

Test [1] deals with Vero. Briefly: Cytotoxicity against african green monkey Vero cells […] after 3 days. It is filed as cell-based. The conditions noted are these: Chlorocebus sabaeus, 72 h.
For test [2], the system named is Mycobacterium tuberculosis. Briefly: Antitubercular activity against Mycobacterium tuberculosis H37Rv by microplate alamar blue assay. Format: functional.
Test [3] is described as follows: Selectivity index, ratio of IC50 for african green monkey Vero cells to MIC for Mycobacterium tuberculosis H37Rv. Format: functional.

The term IC50 denotes the concentration at which inhibition is half-maximal. By MIC90 is commonly meant the lowest concentration that inhibits either 90% of growth or 90% of the strains tested, depending on the study.

≈ marks a conversion by molar mass, not a printed value.

With `C[N+](C)(CCCN1c2ccccc2Sc2ccc(C(F)(F)F)cc21)Cc1ccc(Br)cc1.[Br-]`, in test [1], the IC50 was greater than 128 µM. Also, the MIC90 in test [2] was found to be 6 µM. The “Selectivity Index” value in test [3] is recorded as greater than 21.

`C[N+](C)(CCCN1c2ccccc2Sc2ccc(C(F)(F)F)cc21)Cc1ccc(I)cc1.[Br-]` gave an IC50 in test [1] of 92.7 µM. This compound came in with an MIC90 in test [2] of 5.9 µM. For the same compound, in test [3], the “Selectivity Index” value is recorded as greater than 16.

As for `FC(F)(F)c1ccc2c(c1)N(Cc1cn(Cc3ccc(Cl)cc3)nn1)c1ccccc1S2`, in test [1], the IC50 is greater than 128 µM. Moreover, the MIC90 in test [2] is greater than 100 µM.

`CCCC[N+](C)(C)CCCN1c2ccccc2Sc2ccc(C(F)(F)F)cc21` returned an MIC90 in test [2] of 53.2 µM.

`C#CC[N+](C)(C)CCCN1c2ccccc2Sc2ccc(C(F)(F)F)cc21`: the MIC90 in test [2] worked out at 121 µM.

For `C[N+](C)(CC#N)CCCN1c2ccccc2Sc2ccc(C(F)(F)F)cc21`, in test [2], the MIC90 was greater than 128 µM.

`C=CC[N+](C)(C)CCCN1c2ccccc2Sc2ccc(C(F)(F)F)cc21`: the MIC90 in test [2] was greater than 128 µM.

For `C=CC[N+](C)(C)CCCN1c2ccccc2Sc2ccccc21`, in test [2], the MIC90 is greater than 128 µM.

In turn, `C#CC[N+](C)(C)CCCN1c2ccccc2Sc2ccccc21` gave an MIC90 in test [2] greater than 128 µM.

`C[N+](C)(CCCN1c2ccccc2Sc2ccc(C(F)(F)F)cc21)Cc1ccc(F)cc1.[Cl-]` showed an IC50 in test [1] greater than 128 µM. This compound returned an MIC90 in test [2] of 11.9 µM. The “Selectivity Index” value in test [3] is reported as greater than 11.

`C[N+](C)(CCCN1c2ccccc2Sc2ccc(C(F)(F)F)cc21)Cc1ccc(Cl)cc1.[Cl-]`: the IC50 in test [1] is greater than 128 µM. The compound also gave an MIC90 in test [2] of 9 µM. Besides, the “Selectivity Index” value in test [3] is listed as greater than 14.

Consider `CO[C@H]1/C=C/O[C@@]2(C)Oc3c(C)c(O)c4c(O)c(c(/C=N/N5CCN(C)CC5)c(O)c4c3C2=O)NC(=O)/C(C)=C\C=C\[C@H](C)[C@H](O)[C@@H](C)[C@@H](O)[C@@H](C)[C@H](OC(C)=O)[C@@H]1C` [RIFAMPIN], for which the IC50 in test [1] is greater than 100 µM. Also, in test [2], the MIC90 amounted to 0.09 µM (≈ 0.0741 µg/mL). Also, the “Selectivity Index” value in test [3] is greater than 909.
